The nature of series [1]: Cytotoxicity against rat RGM1 cells assessed as reduction in viability at 100 to 100 uM after 24 hrs by CCK-8 assay. Particulars: rgm1, 24 h, dose 100-100 µM. The class given is toxicity, cell-based.
The test system of series [2] is RGK1. The series is described as follows: Antiproliferative activity against rat RGK1 cells assessed as reduction in viability at 100 to 100 uM after 24 hrs by CCK-8 assay. The class given is functional, cell-based. Particulars: dose 100-100 µM.
Series [3] has as its system RGK1. The series is described as follows: Induction of mitochondrial membrane potential loss in rat RGK1 cells at 200 uM after 24 hrs by MitoTracker Red CMXRos fluorescence microscopic analysis. The class given is functional, cell-based.

Active and inactive are the calls of the source. No cut-off for these calls is given here.

As for `CC1(C)O[C@H]2Cc3c(O)cc(O)cc3O[C@@H]2c2cc(O)c(O)cc21`, in series [1], the Activity result is on record as “Toxic”. Further, the result in series [2] and in series [3] was Active.

Source of the values: ChEMBL document CHEMBL5370633, “Anti-cancer Effect of a Planar Catechin Analog through the Decrease in Mitochondrial Membrane Potential” (ACS Med Chem Lett, 2023).
